Assay results from patent publication US10414811B2, “Protease-resistant lipidated GLP-1 analogs” (MEDIMMUNE LIMITED, priority 2015, dated 2019).
Where two headings read alike, the source gives them in different places. Numbered stars: 1 amine (or outer) side, 2 acyl side, 3 side chain; on linkers, the order of the positions; unused ones are H or OH. Square brackets hold non-standard residues; d marks the D form. Side chains are listed from the residue outwards. Peptide text beside a SMILES is read from it. * marks the point of attachment. γGlu = O=C(O)[C@H](CCC(=O)[*:2])N[*:1]; Stearoyl = CCCCCCCCCCCCCCCCCC(=O)*; Palmitoyl = CCCCCCCCCCCCCCCC(=O)*; αMeF = C[C@](N)(Cc1ccccc1)C(=O)O; αMeK = C[C@](N)(CCCCN)C(=O)O; αMeS = C[C@](N)(CO)C(=O)O; AEEA = NCCOCCOCC(=O)O; Aib = CC(C)(N)C(=O)O

Tests used:
Assay type in all cases: cell-based
[1] = molecular target: T1, human glucose-dependent insulinotropic peptide receptor (GIPR) (Homo sapiens, UniProt P48546); assay: cAMP assay, human GIPR cells; settings: cAMP assay
T1 construct: expressed in transfected cells
T1 sequence (P48546 22-466): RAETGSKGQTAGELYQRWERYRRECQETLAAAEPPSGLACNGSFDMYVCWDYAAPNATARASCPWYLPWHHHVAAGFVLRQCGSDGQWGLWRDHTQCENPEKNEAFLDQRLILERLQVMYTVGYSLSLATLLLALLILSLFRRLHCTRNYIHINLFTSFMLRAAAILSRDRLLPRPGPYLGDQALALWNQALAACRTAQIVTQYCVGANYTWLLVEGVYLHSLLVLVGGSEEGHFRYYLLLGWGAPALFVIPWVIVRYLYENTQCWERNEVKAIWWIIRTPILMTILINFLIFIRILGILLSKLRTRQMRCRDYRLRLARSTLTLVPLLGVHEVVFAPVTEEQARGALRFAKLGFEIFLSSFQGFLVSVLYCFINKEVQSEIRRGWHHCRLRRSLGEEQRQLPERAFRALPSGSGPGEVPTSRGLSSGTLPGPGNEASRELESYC
Procedure, shortened: (§1)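 Peptide-stimulated cAMP measured by two-step HTRF after a 30 min room-temperature incubation with receptor-expressing cells (hGLP-1R, hGIPR at 1×10^5 cells/ml; hGCGR at 2×10^5 cells/ml). Duplicate dilutions; EC50 from 4-parameter logistic fit of % Delta F.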

[2] = molecular target: T2, human glucagon receptor (GCGR) (Homo sapiens, UniProt P47871); assay: cAMP assay, human GCGR cells; settings: cAMP assay
T2 construct: expressed in transfected cells
T2 sequence (P47871 26-477): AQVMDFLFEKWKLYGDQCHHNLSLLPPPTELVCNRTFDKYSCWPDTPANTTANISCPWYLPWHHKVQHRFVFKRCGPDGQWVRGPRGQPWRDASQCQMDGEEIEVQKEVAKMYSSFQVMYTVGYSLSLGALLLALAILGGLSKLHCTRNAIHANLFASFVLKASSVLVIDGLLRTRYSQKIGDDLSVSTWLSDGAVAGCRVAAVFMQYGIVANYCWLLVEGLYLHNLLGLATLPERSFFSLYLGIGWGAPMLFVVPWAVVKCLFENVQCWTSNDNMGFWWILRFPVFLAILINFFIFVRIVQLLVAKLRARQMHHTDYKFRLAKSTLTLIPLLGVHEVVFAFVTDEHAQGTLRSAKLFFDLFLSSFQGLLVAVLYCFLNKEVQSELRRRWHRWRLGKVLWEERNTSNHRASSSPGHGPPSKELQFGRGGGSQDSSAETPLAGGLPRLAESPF
Procedure, shortened: as §1

GLP-1R (INS1e assay) = molecular target: T3, GLP-1R (INS1e assay) (Rattus norvegicus, UniProt P32301); assay: INS1e assay, cAMP activity at GLP-1R; settings: mono-lipidated peptides
T3 construct: endogenous in cells; host or cells: INS-1E cells
T3 sequence (P32301 22-463): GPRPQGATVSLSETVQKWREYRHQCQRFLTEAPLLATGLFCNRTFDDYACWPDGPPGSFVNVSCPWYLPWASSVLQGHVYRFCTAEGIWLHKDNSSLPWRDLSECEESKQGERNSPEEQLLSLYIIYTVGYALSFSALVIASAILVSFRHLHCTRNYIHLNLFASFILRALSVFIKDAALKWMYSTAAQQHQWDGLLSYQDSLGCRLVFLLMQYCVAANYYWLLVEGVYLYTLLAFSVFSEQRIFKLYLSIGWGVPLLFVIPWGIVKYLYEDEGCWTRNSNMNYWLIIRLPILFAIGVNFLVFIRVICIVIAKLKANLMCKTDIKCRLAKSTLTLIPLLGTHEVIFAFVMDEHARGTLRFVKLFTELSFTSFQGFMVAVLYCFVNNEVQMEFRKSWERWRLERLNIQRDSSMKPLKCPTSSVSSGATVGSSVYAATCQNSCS
Method: cAMP levels are measured using a commercially available cAMP dynamic 2 HTRF kit (Cisbio, Cat #62AM4PEJ), following the two step protocol as per manufacturer's recommendations. In brief; anti-cAMP cryptate (donor fluorophore) and cAMP-d2 (acceptor fluorophore) are made up separately by diluting each 1/20 in conjugate & lysis buffer provided in the kit. 5 μL anti-cAMP cryptate is added to wells of the assay plate, and 5 μL cAMP-d2 is added to wells except non-specific binding (NSB) wells, to which conjugate and lysis buffer are added. […] EC50 values of the synthetic peptides determined in cAMP assays are then determined.

[3] = first determination (n1), read-out: Primary assay EC50 GIP-R (n1)
[4] = second determination (n2), read-out: Primary assay EC50 GIP-R (n2)
[5] = first determination (n1), read-out: Primary assay EC50 Gluc-R (n1)
[6] = second determination (n2), read-out: Primary assay EC50 Gluc-R (n2)
[7] = mean of n1 and n2, read-out: INS1e assay EC50 Mean pM GLP-1R
[8] = replicate n1, read-out: INS1e assay EC50 GLP-1R n1
[9] = replicate n2, read-out: INS1e assay EC50 GLP-1R n2

Row | EC50 [1, 3] | EC50 [1, 4] | EC50 [2, 5] | EC50 [2, 6] | EC50 (GLP-1R (INS1e assay); [7]) | EC50 (GLP-1R (INS1e assay); [8]) | EC50 (GLP-1R (INS1e assay); [9]) | Compound
1 | ≥ 26 nM | ≥ 26 nM | ≥ 26 nM | ≥ 26 nM | 7 pM | 6.25 pM | 8.15 pM | CCCCCCCCCCCCCCCCCC(=O)NCCOCCOCC(=O)NCCOCCOCC(=O)NCCOCCOCC(=O)NCCCC[C@H](NC(=O)[C@H](C)NC(=O)[C@H](C)NC(=O)[C@H](CCC(=O)O)NC(=O)CNC(=O)[C@H](CCC(=O)O)NC(=O)[C@H](CC(C)C)NC(=O)[C@H](Cc1ccc(O)cc1)NC(=O)[C@H](CO)NC(=O)[C@](C)(CO)NC(=O)[C@@H](NC(=O)[C@H](CC(=O)O)NC(=O)[C@H](CO)NC(=O)[C@@H](NC(=O)[C@](C)(Cc1ccccc1)NC(=O)[C@H](CO)NC(=O)CNC(=O)[C@H](CCC(=O)O)NC(=O)C(C)(C)NC(=O)[C@@H](N)Cc1c[nH]cn1)[C@@H](C)O)C(C)C)C(=O)N[C@@H](CCC(=O)O)C(=O)N[C@@](C)(Cc1ccccc1)C(=O)N[C@H](C(=O)N[C@@H](C)C(=O)N[C@@](C)(Cc1ccccc1)C(=O)N[C@H](C(=O)N[C@H](C(=O)N[C@@](C)(CCCCN)C(=O)NCC(=O)NCC(N)=O)C(C)C)C(C)C)[C@@H](C)CC [compound 53] (H-H[Aib]EGS[αMeF]TSDV[αMeS]SYLEGEAAK([AEEA-AEEA-AEEA-Stearoyl])E[αMeF]IA[αMeF]VV[αMeK]GG-NH2)
2 | ≥ 28 nM | ≥ 28 nM | ≥ 28 nM | ≥ 28 nM | 51 pM | 43.4 pM | 58.6 pM | CCCCCCCCCCCCCCCC(=O)N[C@@H](CCC(=O)NCCCC[C@H](NC(=O)[C@H](CC(=O)O)NC(=O)[C@H](CO)NC(=O)[C@@H](NC(=O)[C@](C)(Cc1ccccc1)NC(=O)[C@H](CO)NC(=O)CNC(=O)[C@H](CCC(=O)O)NC(=O)C(C)(C)NC(=O)[C@@H](N)Cc1c[nH]cn1)[C@@H](C)O)C(=O)N[C@@](C)(CO)C(=O)N[C@@H](CO)C(=O)N[C@@](C)(Cc1ccccc1)C(=O)N[C@@H](CC(C)C)C(=O)N[C@@H](CCC(=O)O)C(=O)NCC(=O)N[C@@H](CCC(=O)O)C(=O)N[C@@H](C)C(=O)N[C@@H](C)C(=O)N[C@@](C)(CCCCN)C(=O)N[C@@H](CCC(=O)O)C(=O)N[C@@](C)(Cc1ccccc1)C(=O)N[C@H](C(=O)N[C@@H](C)C(=O)N[C@@](C)(Cc1ccccc1)C(=O)N[C@H](C(=O)N[C@H](C(=O)N[C@@](C)(CCCCN)C(=O)NCC(=O)NCC(N)=O)C(C)C)C(C)C)[C@@H](C)CC)C(=O)O [compound 90] (H-H[Aib]EGS[αMeF]TSDK([γGlu-Palmitoyl])[αMeS]S[αMeF]LEGEAA[αMeK]E[αMeF]IA[αMeF]VV[αMeK]GG-NH2)
